Where a name gives a salt, the structure may show the parent alone.
Tests used:
[1] = system: BaF3 PIM1 cells; assay: In vitro cell proliferation potency assay (Cell Titer Glo), BaF3 PIM1 cells; format: cell-based, murine; settings: Mus musculus, BaF3, BaF3 cells transfected with PIM1, incubated overnight; read-out: Prolif BaF3_PIM 1 (IC50)
Experimental: BaF3 parental line was obtained from the DSMZ repository. BaF3 lines transfected with PIM1 or PIM2 were generated. Mouse IL-3 was purchased from R&D Systems. G418 was purchased from Clontech. Media for BaF3 parental line contained RPMI, 10% FBS, 2 mM L-Glutamine, 2 ng/mL mIL-3. Media for BaF3 PIM1 & 2 lines contained RPMI, 10% FBS, 2 mM L-Glutamine, […]. Media for MM1.S (multiple myeloma cells) line contained RPMI, 10% FBS, 2 mM L-Glutamine.
BaF3, a murine interleukin-3 dependent pro-B cell line, parental cells, BaF3 PIM1 cells, BaF3 PIM2 cells, and MM1.S (multiple myeloma) cells were seeded at 2 k/well, 5 k/well, 5 k/well, and 10 k/well respectively, in a 384-well plate, at 45 μL/well. Test compound was added at 5 μL/well. BaF3 cells (parental and transfected) were incubated overnight, while MM1.S cells were incubated for 72 hours at 37° C., 5% CO2. CELL TITER GLO® Reagent (Promega) was added at 50 μL/well, the plates were incubated for 30 minutes, and their luminescence read on an HT Analyst. IC50/EC50 values for the test compound were calculated.

[2] = molecular target: PIM1 (Homo sapiens (Human), UniProt P11309); assay: biochemical; format: biochemical; settings: 10 μM ATP, 90 min, room temperature; read-out: PIM1 LC3K (KI)
PIM1, sequence (P11309 whole entry): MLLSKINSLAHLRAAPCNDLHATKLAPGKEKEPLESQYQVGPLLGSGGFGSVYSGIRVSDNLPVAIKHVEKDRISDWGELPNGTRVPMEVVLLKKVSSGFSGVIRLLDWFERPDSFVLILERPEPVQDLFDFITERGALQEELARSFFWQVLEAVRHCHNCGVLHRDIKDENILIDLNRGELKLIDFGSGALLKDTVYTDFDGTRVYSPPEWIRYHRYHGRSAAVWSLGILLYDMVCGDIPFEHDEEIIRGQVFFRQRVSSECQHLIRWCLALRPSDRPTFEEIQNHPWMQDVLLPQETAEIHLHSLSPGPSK
How it was run: (§1)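 Read-out is microfluidic electrophoretic separation of phosphorylated from unphosphorylated fluorescent Pim peptide, with Ki calculated from conversion. Reactions ran 90 min at room temperature in HEPES pH 7.2 containing MgCl2, Tween 20 and DTT, ended by EDTA-containing buffer.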

[3] = molecular target: PIM3 (Homo sapiens (Human), UniProt Q86V86); assay: Pim kinase binding activity, Caliper LC3000 microfluidic peptide phosphorylation assay, PIM3; format: biochemical; settings: 10 μM ATP, 90 min, room temperature; read-out: PIM3 LC3K (KI)
How it was run: as §1

[4] = molecular target: PIM2 (Homo sapiens (Human), UniProt Q9P1W9); assay: Pim kinase binding activity, Caliper LC3000 microfluidic peptide phosphorylation assay, PIM2; format: biochemical; settings: 10 μM ATP, 90 min, room temperature; read-out: PIM2 LC3K (KI)
PIM2, sequence (Q9P1W9 whole entry): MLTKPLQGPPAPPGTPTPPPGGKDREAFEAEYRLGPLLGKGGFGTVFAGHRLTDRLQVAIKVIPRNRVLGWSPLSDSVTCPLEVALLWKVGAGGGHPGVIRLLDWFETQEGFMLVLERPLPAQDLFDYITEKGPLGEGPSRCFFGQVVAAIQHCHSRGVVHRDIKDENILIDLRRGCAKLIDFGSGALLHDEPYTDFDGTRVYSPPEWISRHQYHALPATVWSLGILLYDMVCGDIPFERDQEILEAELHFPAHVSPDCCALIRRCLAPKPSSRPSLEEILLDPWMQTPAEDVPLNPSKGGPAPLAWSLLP
How it was run: as §1

In the case of `CCc1cncc(-c2cc3c(cn2)cnn3-c2cccc(N3CCNCC3)n2)c1` [Compound 104, 6-(5-ethylpyridin-3-yl)-1-(6-(piperazin-1-yl)pyridin-2-yl)-1H-pyrazolo[4,3-c]pyridine], the IC50 [1] is reported as 1500 nM, the Ki [2] is reported as 0.119 nM and the Ki [3] is reported as 0.077 nM.

In the case of `Cc1cncc(-c2cc3c(cn2)cnn3-c2cccc(N3CCC4(CNC4)C3)n2)n1` [Compound 214, 1-[6-(2 6-diazaspiro[3.4]octan-6-yl)-2-pyridyl]-6-(6-methylpyrazin-2-yl)pyrazolo[4,3-c]pyridine], the Ki [4] is reported as 2.65 nM, the IC50 [1] is reported as 1000 nM and the Ki [2] is reported as 0.385 nM. It also gave a Ki [3] of 0.199 nM.

Compound `Cc1cncc(-c2cc3c(cn2)cnn3-c2ccc(C3CC3)c(N3CCC[C@H](N)C3)n2)n1` [Compound 181, (S)-1-(3-cyclopropyl-6-(6-(6-methylpyrazin-2-yl)-1H-pyrazolo[4,3-c]pyridin-1-yl)pyridin-2-yl)piperidin-3-amine] has a Ki [4] of 0.077 nM, an IC50 [1] of 214 nM and a Ki [2] of 0.014 nM. It also gave a Ki [3] of 0.019 nM.

`OCCn1cc(-c2cc3c(cn2)cnn3-c2cccc(N3CCCNCC3)n2)cn1` [Compound 152, 2-(4-(1-(6-(1,4-Diazepan-1-yl)pyridin-2-yl)-1H-pyrazolo[4,3-c]pyridin-6-yl)-1H-pyrazol-1-yl)ethanol] showed a Ki [4] of 5.38 nM, an IC50 [1] of 1500 nM and a Ki [2] of 0.215 nM. The Ki [3] was 0.134 nM.

Compound `COc1ccc(-n2ncc3cnc(-c4cncc(C)n4)cc32)nc1N1CCNCC(O)C1` (centres unmarked) [Compound 207, 1-(3-methoxy-6-(6-(6-methylpyrazin-2-yl)-1H-pyrazolo[4,3-c]pyridin-1-yl)pyridin-2-yl)-1,4-diazepan-6-ol] has a Ki [4] of 3.67 nM, an IC50 [1] of 1500 nM and a Ki [2] of 0.182 nM. It also gave a Ki [3] of 0.093 nM.

`Cc1nc(-c2cc3c(cn2)cnn3-c2cccc(N3CCC[C@H](N)C3)n2)cnc1N` [Compound 209, (S)-5-(1-(6-(3-aminopiperidin-1-yl)pyridin-2-yl)-1H-pyrazolo[4,3-c]pyridin-6-yl)-3-methylpyrazin-2-amine] gave a Ki [4] of 0.575 nM, an IC50 [1] of 682 nM and a Ki [2] of 0.045 nM. It also gave a Ki [3] of 0.011 nM.

Compound `Cn1ncc(-c2cc3c(cn2)cnn3-c2ccccc2F)c1C1=CCNCC1` [Compound 314, 1-(2-fluorophenyl)-6-(1-methyl-5-(1,2,3,6-tetrahydropyridin-4-yl)-1H-pyrazol-4-yl)-1H-pyrazolo[4,3-c]pyridine] has a Ki [4] of 1100 nM, a Ki [2] of 130 nM and a Ki [3] of 166 nM.

Compound `Cc1cncc(-c2cc3c(cn2)cnn3-c2cc(C3COC3)cc(N3CCC[C@H](N)C3)n2)n1` [Compound 250, (S)-1-(6-(6-(6-methylpyrazin-2-yl)-1H-pyrazolo[4,3-c]pyridin-1-yl)-4-(oxetan-3-yl)pyridin-2-yl)piperidin-3-amine] has a Ki [4] of 24.8 nM, a Ki [2] of 3.89 nM and a Ki [3] of 0.743 nM.

Compound `c1cc(N2CCNCC2)nc(-n2ncc3cnc(-c4cncc(C5CC5)c4)cc32)c1` [Compound 111, 6-(5-cyclopropylpyridin-3-yl)-1-(6-(piperazin-1-yl)pyridin-2-yl)-1H-pyrazolo[4,3-c]pyridine] has a Ki [4] of 9.11 nM, a Ki [2] of 0.165 nM and a Ki [3] of 0.181 nM.

`Cc1cncc(-c2cc3c(cn2)cnn3-c2cccc(N3CCCNC3=O)n2)n1` [Compound 252, 1-[6-[6-(6-methylpyrazin-2-yl)pyrazolo[4,3-c]pyridin-1-yl]-2-pyridyl]hexahydropyrimidin-2-one] was tested, and the Ki [4] was 35 nM, the Ki [2] was 5.67 nM and the Ki [3] was 3.16 nM.

For `Cn1cc(-c2cc3c(cn2)cnn3-c2cccc(N3CC(O)(CN)C3)n2)cn1` [Compound 270, 3-(Aminomethyl)-1-(6-(6-(1-methyl-1H-pyrazol-4-yl)-1H-pyrazolo[4,3-c]pyridin-1-yl)pyridin-2-yl)azetidin-3-ol], the Ki [4] was 20.4 nM, the Ki [2] was 1.08 nM and the Ki [3] was 0.361 nM.

In the case of `Cc1cncc(-c2cc3c(cn2)cnn3-c2cnc(Cl)c(N3CCC[C@H](N)C3)n2)n1` [Compound 226, (3S)-1-[3-chloro-6-[6-(6-methylpyrazin-2-yl)pyrazolo[4,3-c]pyridin-1-yl]pyrazin-2-yl]piperidin-3-amine], the Ki [4] is reported as 10.4 nM, the Ki [2] is reported as 1.65 nM and the Ki [3] is reported as 0.89 nM.

For `NCC1CN(c2cccc(-n3ncc4cnc(-c5cnn(CC(F)(F)F)c5)cc43)n2)C1` [Compound 262, (1-(6-(6-(1-(2,2,2-Trifluoroethyl)-1H-pyrazol-4-yl)-1H-pyrazolo[4,3-c]pyridin-1-yl)pyridin-2-yl)azetidin-3-yl)methanamine], the Ki [4] was 12.5 nM, the Ki [2] was 1.23 nM and the Ki [3] was 1.84 nM.

Work on `Clc1cncc(-c2cc3c(cn2)cnn3-c2cccc(N3CCNCC3)n2)n1` [Compound 275, 6-(6-Chloropyrazin-2-yl)-1-(6-(piperazin-1-yl)pyridin-2-yl)-1H-pyrazolo[4,3-c]pyridine dihydrochloride] yielded a Ki [4] of 5.74 nM, a Ki [2] of 0.725 nM and a Ki [3] of 0.267 nM.

`Cc1cncc(-c2cc3c(cn2)cnn3-c2ccc(C)c(N3C[C@@H](N)CCC3=O)n2)n1` [Compound 221, (5S)-5-amino-1-[3-methyl-6-[6-(6-methylpyrazin-2-yl)pyrazolo[4,3-c]pyridin-1-yl]-2-pyridyl]piperidin-2-one] gave a Ki [4] of 744 nM, a Ki [2] of 26.2 nM and a Ki [3] of 23.2 nM.

`Cc1cncc(-c2cc3c(cn2)cnn3-c2cccc(N3CC(O)C(O)C3)n2)n1` (centres unmarked) [Compound 232, 1-[6-[6-(6-methylpyrazin-2-yl)pyrazolo[4,3-c]pyridin-1-yl]-2-pyridyl]pyrrolidine-3 4-diol] gave a Ki [4] of 21.1 nM, a Ki [2] of 1.19 nM and a Ki [3] of 0.83 nM.

`Cc1cncc(-c2cc3c(cn2)cnn3-c2cccc(N3CC4(CCNC4)C3)n2)n1` [Compound 217, 1-[6-(2 7-diazaspiro[3.4]octan-2-yl)-2-pyridyl]-6-(6-methylpyrazin-2-yl)pyrazolo[4,3-c]pyridine] was tested, and the Ki [4] was 15.1 nM, the Ki [2] was 1.17 nM and the Ki [3] was 0.258 nM.

`Cc1ccc(-n2ncc3cnc(-c4cnn(CC(F)(F)F)c4)cc32)nc1N1CCNC[C@H](O)C1` (single isomer, unassigned) [Compound 263] gave a Ki [4] of 6.51 nM, a Ki [2] of 0.253 nM and a Ki [3] of 0.536 nM.

`CO[C@@]1(C)CNCCN(c2cccc(-n3ncc4cnc(-c5cnn(CC(F)(F)F)c5)cc43)n2)C1` [Compound 261, (S)-1-(6-(6-Methoxy-6-methyl-1,4-diazepan-1-yl)pyridin-2-yl)-6-(1-(2,2,2-trifluoroethyl)-1H-pyrazol-4-yl)-1H-pyrazolo[4,3-c]pyridine] showed a Ki [4] of 16.5 nM, a Ki [2] of 0.763 nM and a Ki [3] of 2.74 nM.

Compound `Cn1ncc(-c2cc3c(cn2)cnn3-c2cccc(N3CCCNCC3)n2)cc1=O` [Compound 148, 5-(1-(6-(1,4-diazepan-1-yl)pyridin-2-yl)-1H-pyrazolo[4,3-c]pyridin-6-yl)-2-methylpyridazin-3(2H)-one] has a Ki [4] of 4100 nM, a Ki [2] of 128 nM and a Ki [3] of 45.2 nM.

`C[C@]1(O)CNCCN(c2cccc(-n3ncc4cnc(-c5cnn(CC(F)(F)F)c5)cc43)n2)C1` [Compound 248, (S)-6-Methyl-1-(6-(6-(1-(2,2,2-trifluoroethyl)-1H-pyrazol-4-yl)-1H-pyrazolo[4,3-c]-pyridin-1-yl)pyridin-2-yl)-1,4-diazepan-6-ol] showed a Ki [4] of 22.1 nM, a Ki [2] of 1.64 nM and a Ki [3] of 3.36 nM.

`Cc1cncc(-c2cc3c(cn2)cnn3-c2cccc(N3CCC4(CCNCC4)C3)n2)n1` [Compound 199, 2-[6-[6-(6-methylpyrazin-2-yl)pyrazolo[4,3-c]pyridin-1-yl]-2-pyridyl]-2 8-diazaspiro[4.5]decane] showed a Ki [4] of 13.7 nM, a Ki [2] of 0.716 nM and a Ki [3] of 0.655 nM.

Work on `c1cc(N2CCNCC2)nc(-n2ncc3cnc(-c4cncc(C5COC5)c4)cc32)c1` [Compound 114, 6-(5-(oxetan-3-yl)pyridin-3-yl)-1-(6-(piperazin-1-yl)pyridin-2-yl)-1H-pyrazolo[4,3-c]pyridine] yielded a Ki [4] of 16.9 nM, a Ki [2] of 0.479 nM and a Ki [3] of 0.652 nM.

For `CO[C@]1(C)CNCCN(c2cccc(-n3ncc4cnc(-c5cnn(CC(F)(F)F)c5)cc43)n2)C1` [Compound 264, (R)-1-(6-(6-Methoxy-6-methyl-1,4-diazepan-1-yl)pyridin-2-yl)-6-(1-(2,2,2-trifluoroethyl)-1H-pyrazol-4-yl)-1H-pyrazolo[4,3-c]pyridine], the Ki [4] was 58.2 nM, the Ki [2] was 2.94 nM and the Ki [3] was 6.37 nM.

`Cn1cc(-c2cc3c(cn2)cnn3-c2cccc(N3CC(N)C3)n2)cn1` [Compound 257, 1-(6-(6-(1-Methyl-1H-pyrazol-4-yl)-1H-pyrazolo[4,3-c]pyridin-1-yl)pyridin-2-yl)azetidin-3-amine] gave a Ki [4] of 23.3 nM, a Ki [2] of 0.784 nM and a Ki [3] of 0.507 nM.

In the case of `Cc1cncc(-c2cc3c(cn2)cnn3-c2cccc(N3CCNCCC3=O)n2)n1` [Compound 206, 4-[6-[6-(6-methylpyrazin-2-yl)pyrazolo[4,3-c]pyridin-1-yl]-2-pyridyl]-1 4-diazepan-5-one], the Ki [4] is reported as 40.4 nM, the Ki [2] is reported as 3.74 nM and the Ki [3] is reported as 2.3 nM.

From patent US9434725B2, “5-azaindazole compounds and methods of use” (priority 2012, dated 2016)
